Reference: patent publication US20170226139A1, “CRYSTALLINE SALTS OF (Z)-O-OCTADEC-9-EN-1-YL O,O-DIHYDROGEN PHOSPHOROTHIOATE” (priority 2013, published 2017)
Read-outs that look alike come from different tables or passages of the source.

Tests used:
[1] = target: T1, cloned hERG Potassium Channels expressed in human embryonic kidney cells (Homo sapiens, UniProt Q12809); test: hERG assay; assay type: cell-based
T1 construct: expressed in transfected cells; host or cells: human embryonic kidney cells
T1 sequence (Q12809 whole entry): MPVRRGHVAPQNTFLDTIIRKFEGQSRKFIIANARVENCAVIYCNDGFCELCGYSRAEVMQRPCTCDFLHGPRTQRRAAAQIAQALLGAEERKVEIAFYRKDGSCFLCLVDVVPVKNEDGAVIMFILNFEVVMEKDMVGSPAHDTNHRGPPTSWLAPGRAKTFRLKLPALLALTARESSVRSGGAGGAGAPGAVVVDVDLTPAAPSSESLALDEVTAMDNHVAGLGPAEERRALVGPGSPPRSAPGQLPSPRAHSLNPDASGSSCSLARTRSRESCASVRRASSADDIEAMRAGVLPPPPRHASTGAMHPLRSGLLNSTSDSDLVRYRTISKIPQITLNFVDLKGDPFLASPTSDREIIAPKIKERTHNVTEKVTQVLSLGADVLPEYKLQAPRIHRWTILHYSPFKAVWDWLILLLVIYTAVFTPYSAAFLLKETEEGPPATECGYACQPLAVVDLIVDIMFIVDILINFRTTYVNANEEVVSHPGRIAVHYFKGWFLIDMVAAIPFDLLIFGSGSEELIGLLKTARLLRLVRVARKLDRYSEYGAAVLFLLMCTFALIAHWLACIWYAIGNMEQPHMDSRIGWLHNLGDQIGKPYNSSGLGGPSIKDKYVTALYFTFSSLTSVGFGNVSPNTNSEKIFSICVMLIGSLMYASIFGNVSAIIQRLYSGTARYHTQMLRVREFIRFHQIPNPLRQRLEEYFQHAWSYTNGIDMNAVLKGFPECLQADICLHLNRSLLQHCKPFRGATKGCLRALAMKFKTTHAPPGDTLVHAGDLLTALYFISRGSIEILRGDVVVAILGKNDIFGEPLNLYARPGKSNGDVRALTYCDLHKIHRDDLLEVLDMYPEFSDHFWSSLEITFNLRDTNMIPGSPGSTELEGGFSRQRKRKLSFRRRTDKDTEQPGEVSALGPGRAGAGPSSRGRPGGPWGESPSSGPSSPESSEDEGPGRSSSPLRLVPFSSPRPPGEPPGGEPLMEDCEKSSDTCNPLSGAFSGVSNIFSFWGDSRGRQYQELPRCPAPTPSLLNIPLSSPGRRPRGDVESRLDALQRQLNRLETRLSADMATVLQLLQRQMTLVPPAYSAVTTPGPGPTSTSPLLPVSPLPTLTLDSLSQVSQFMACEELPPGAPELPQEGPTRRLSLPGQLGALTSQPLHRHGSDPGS

[2] = test system: male telemetered cynomolgus monkeys; test: Cardiovascular safety pharmacology in telemetered monkeys; assay type: in vivo; conditions: SC 0.1, 0.5 and 2.0 mg/kg as the free acid
Description: Four male telemetered cynomolgus monkeys were selected, and assigned via a Latin Square design to receive four doses of Rx100.lysine or vehicle via subcutaneous injection at doses of 0 (10 mM histidine in sterile water for injection, USP), 0.1, 0.5 and 2.0 mg/kg as the free acid. Parameters evaluated include clinical observations, body temperature, arterial pressure and ECG evaluations (PR, QT, QRS durations). QTc values were calculated based on data collected for each animal.

cynomolgus monkeys = test: Single-dose range-finding and 7-day repeat-dose toxicity in monkeys; assay type: in vivo
Description: In the first phase of the range-finding monkey study, one male and one female cynomolgus monkeys received single subcutaneous doses of Rx100.Lysine at 0.3, 1, 3, 10, 25 and 75 mg/kg of free acid. The vehicle for all doses was Sterile water for injection with 10 mM L-histidine. In the 7-day repeat-dose phase, two males and females were dosed subcutaneously at 10 mg/kg/day. Parameters evaluated included clinical signs, body weight, food consumption, and clinical and anatomic pathology. […] Animals were subsequently sacrificed. […] No effects on body weights were seen.

[3] = Evaporative crystallization tests, XRPD; assay type: physicochemical; conditions: evaporated to dryness under vacuum at ambient conditions
Description: Third, Evaporative Crystallization tests were performed. Based on the short term slurry experiments, all samples which experienced full dissolution were utilized for evaporative crystallizations. Samples were evaporated to dryness under vacuum at ambient conditions.

[4] = test system: S. typhimurium strains TA98, TA100, TA1535 and TA1537 and E. coli strain WP2uvrA; assay type: cell-based
Description: An Ames assay was conducted on Rx100.Lysine using S. typhimurium strains TA98, TA100, TA1535 and TA1537 and E. coli strain WP2uvrA. Two trials were performed. […] See Tables 38A and 38B, respectively. In the second trial, doses ranged from 0.160 to 16 μg/plate with some strains tested with activation and others without activation.

[5] = Gravimetric moisture sorption analysis, with XRPD afterwards; assay type: physicochemical
Description: Moisture sorption analysis of the Rx100.L-Lysine salt was performed by equilibrating the sample at 25° C. and 50% RH to simulate ambient lab conditions. Humidity then decreased to 0% RH, increased from 0 to 95% RH, reduced from 95 to 0% RH, increased from 0 to 95% RH and then decreased from 95 to 50% RH.

Compound: CCCCCCCC/C=C\CCCCCCCCOP(O)(O)=S [Rx100, (Z)—O-octadec-9-en-1-yl O,O-dihydrogen phosphorothioate]
- IC50 [1]: ~600 µM
- hERG IC50 relative to anticipated therapeutic concentrations [1]: 100 fold

Compound: CCCCCCCC/C=C\CCCCCCCCOP(O)(O)=S [Rx100.L-Lysine, (Z)—O-octadec-9-en-1-yl O,O-dihydrogen phosphorothioate]
- ECG intervals [2]: no meaningful changes in PR, QRS, QT and QTc
- heart rate [2]: slight dose-dependent increase in heart rate
- effects on body weights (cynomolgus monkeys; 10 mg/kg/day SC, 7 days): No effects
- signs in repeated dose phase (cynomolgus monkeys; 10 mg/kg/day SC, 7 days): intermittent food consumption and adverse effects at the injection sites
- clinical signs (cynomolgus monkeys; single SC dose 75 mg/kg): animals became hunched and were obviously in pain
- treatment related effects (cynomolgus monkeys; single SC doses up to and including 25 mg/kg): no meaningful treatment related effects
- Form by XRPD after evaporative crystallization [3]: no change in form
- Ames assay, overall result [4]: negative
- Genotoxic Effects ([4]; Bacterial Reverse Mutation Assay, plate incorporation 52 ± 4 hours): Genotoxic Effects: None
- Revertant Colony Counts (Mean ± SD) ([4]; TA98, with metabolic activation, 1.45 μg/plate): 17 ± 5 ^N
- Revertant Colony Counts (Mean ± SD) ([4]; TA98, with metabolic activation, 4.52 μg/plate): 19 ± 3 ^N
- Revertant Colony Counts (Mean ± SD) ([4]; TA98, with metabolic activation, 14.5 μg/plate): 16 ± 5 ^N
- Revertant Colony Counts (Mean ± SD) ([4]; TA98, with metabolic activation, 45.2 μg/plate): 20 ± 6 ^N
- Revertant Colony Counts (Mean ± SD) ([4]; TA98, with metabolic activation, 145 μg/plate): 0 ± 0 ^E
- Revertant Colony Counts (Mean ± SD) ([4]; TA98, with metabolic activation, 452 μg/plate): 0 ± 0 ^V
- Revertant Colony Counts (Mean ± SD) ([4]; TA98, with metabolic activation, 1450 μg/plate): 0 ± 0 ^A
- Revertant Colony Counts (Mean ± SD) ([4]; TA98, with metabolic activation, 4520 μg/plate): 0 ± 0 ^A
- Revertant Colony Counts (Mean ± SD) ([4]; TA100, with metabolic activation, 1.45 μg/plate): 114 ± 12 ^N
- Revertant Colony Counts (Mean ± SD) ([4]; TA100, with metabolic activation, 4.52 μg/plate): 117 ± 5 ^N
- Revertant Colony Counts (Mean ± SD) ([4]; TA100, with metabolic activation, 14.5 μg/plate): 89 ± 14 ^N
- Revertant Colony Counts (Mean ± SD) ([4]; TA100, with metabolic activation, 45.2 μg/plate): 26 ± 3 ^E
- Revertant Colony Counts (Mean ± SD) ([4]; TA100, with metabolic activation, 145 μg/plate): 39 ± 3 ^M R
- Revertant Colony Counts (Mean ± SD) ([4]; TA100, with metabolic activation, 452 μg/plate): 0 ± 0 ^A T
- Revertant Colony Counts (Mean ± SD) ([4]; TA100, with metabolic activation, 1450 μg/plate): 0 ± 0 ^M A T
- Revertant Colony Counts (Mean ± SD) ([4]; TA100, with metabolic activation, 4520 μg/plate): 0 ± 0 ^A T
- Revertant Colony Counts (Mean ± SD) ([4]; TA1535, with metabolic activation, 0.0181 μg/plate): 10 ± 4 ^N M
- Revertant Colony Counts (Mean ± SD) ([4]; TA1535, with metabolic activation, 0.0452 μg/plate): 11 ± 2 ^C M N
- Revertant Colony Counts (Mean ± SD) ([4]; TA1535, with metabolic activation, 0.145 μg/plate): 9 ± 3 ^N
- Revertant Colony Counts (Mean ± SD) ([4]; TA1535, with metabolic activation, 0.452 μg/plate): 13 ± 1 ^N
- Revertant Colony Counts (Mean ± SD) ([4]; TA1535, with metabolic activation, 1.45 μg/plate): 11 ± 5 ^N
- Revertant Colony Counts (Mean ± SD) ([4]; TA1535, with metabolic activation, 4.52 μg/plate): 9 ± 1 ^N
- Revertant Colony Counts (Mean ± SD) ([4]; TA1535, with metabolic activation, 14.5 μg/plate): 11 ± 3 ^N
- Revertant Colony Counts (Mean ± SD) ([4]; TA1537, with metabolic activation, 1.45 μg/plate): 9 ± 3 ^N
- Revertant Colony Counts (Mean ± SD) ([4]; TA1537, with metabolic activation, 4.52 μg/plate): 7 ± 2 ^N M
- Revertant Colony Counts (Mean ± SD) ([4]; TA1537, with metabolic activation, 14.5 μg/plate): 6 ± 5 ^M N
- Revertant Colony Counts (Mean ± SD) ([4]; TA1537, with metabolic activation, 45.2 μg/plate): 3 ± 2 ^E
- Revertant Colony Counts (Mean ± SD) ([4]; TA1537, with metabolic activation, 145 μg/plate): 0 ± 0 ^R
- Revertant Colony Counts (Mean ± SD) ([4]; TA1537, with metabolic activation, 452 μg/plate): 0 ± 0 ^V
- Revertant Colony Counts (Mean ± SD) ([4]; TA1537, with metabolic activation, 1450 μg/plate): 0 ± 0 ^V
- Revertant Colony Counts (Mean ± SD) ([4]; TA1537, with metabolic activation, 4520 μg/plate): 0 ± 0 ^A
- Revertant Colony Counts (Mean ± SD) ([4]; WP2uvrA, with metabolic activation, 1.45 μg/plate): 13 ± 4 ^N
- Revertant Colony Counts (Mean ± SD) ([4]; WP2uvrA, with metabolic activation, 4.52 μg/plate): 17 ± 4 ^M N
- Revertant Colony Counts (Mean ± SD) ([4]; WP2uvrA, with metabolic activation, 14.5 μg/plate): 19 ± 4 ^N
- Revertant Colony Counts (Mean ± SD) ([4]; WP2uvrA, with metabolic activation, 45.2 μg/plate): 12 ± 4 ^N
- Revertant Colony Counts (Mean ± SD) ([4]; WP2uvrA, with metabolic activation, 145 μg/plate): 15 ± 4 ^N M
- Revertant Colony Counts (Mean ± SD) ([4]; WP2uvrA, with metabolic activation, 452 μg/plate): 15 ± 5 ^N
- Revertant Colony Counts (Mean ± SD) ([4]; WP2uvrA, with metabolic activation, 1450 μg/plate): 9 ± 3 ^N
- Revertant Colony Counts (Mean ± SD) ([4]; WP2uvrA, with metabolic activation, 4520 μg/plate): 0 ± 0 ^E
- Revertant Colony Counts (Mean ± SD) ([4]; Without Metabolic Activation, TA98, 0.0181 μg/plate): 15 ± 3 ^N
- Revertant Colony Counts (Mean ± SD) ([4]; Without Metabolic Activation, TA98, 0.0452 μg/plate): 15 ± 5 ^N M
- Revertant Colony Counts (Mean ± SD) ([4]; Without Metabolic Activation, TA98, 0.145 μg/plate): 13 ± 2 ^N M
- Revertant Colony Counts (Mean ± SD) ([4]; Without Metabolic Activation, TA98, 0.452 μg/plate): 13 ± 5 ^N
- Revertant Colony Counts (Mean ± SD) ([4]; Without Metabolic Activation, TA98, 1.45 μg/plate): 14 ± 2 ^N
- Revertant Colony Counts (Mean ± SD) ([4]; Without Metabolic Activation, TA98, 4.52 μg/plate): 12 ± 4 ^N
- Revertant Colony Counts (Mean ± SD) ([4]; Without Metabolic Activation, TA98, 14.5 μg/plate): 12 ± 3 ^N
- Revertant Colony Counts (Mean ± SD) ([4]; Without Metabolic Activation, TA100, 0.0181 μg/plate): 92 ± 8 ^N
- Revertant Colony Counts (Mean ± SD) ([4]; Without Metabolic Activation, TA100, 0.0452 μg/plate): 93 ± 16 ^N
- Revertant Colony Counts (Mean ± SD) ([4]; Without Metabolic Activation, TA100, 0.145 μg/plate): 88 ± 11 ^N
- Revertant Colony Counts (Mean ± SD) ([4]; Without Metabolic Activation, TA100, 0.452 μg/plate): 86 ± 13 ^N
- Revertant Colony Counts (Mean ± SD) ([4]; Without Metabolic Activation, TA100, 1.45 μg/plate): 84 ± 16 ^N
- Revertant Colony Counts (Mean ± SD) ([4]; Without Metabolic Activation, TA100, 4.52 μg/plate): 53 ± 7 ^R
- Revertant Colony Counts (Mean ± SD) ([4]; Without Metabolic Activation, TA100, 14.5 μg/plate): 51 ± 4 ^M R
- Revertant Colony Counts (Mean ± SD) ([4]; Without Metabolic Activation, TA1535, 0.0181 μg/plate): 15 ± 4 ^N
- Revertant Colony Counts (Mean ± SD) ([4]; Without Metabolic Activation, TA1535, 0.0452 μg/plate): 16 ± 2 ^N
- Revertant Colony Counts (Mean ± SD) ([4]; Without Metabolic Activation, TA1535, 0.145 μg/plate): 12 ± 1 ^N
- Revertant Colony Counts (Mean ± SD) ([4]; Without Metabolic Activation, TA1535, 0.452 μg/plate): 11 ± 3 ^N
- Revertant Colony Counts (Mean ± SD) ([4]; Without Metabolic Activation, TA1535, 1.45 μg/plate): 11 ± 2 ^N
- Revertant Colony Counts (Mean ± SD) ([4]; Without Metabolic Activation, TA1535, 4.52 μg/plate): 8 ± 3 ^N
- Revertant Colony Counts (Mean ± SD) ([4]; Without Metabolic Activation, TA1535, 14.5 μg/plate): 4 ± 1 ^R M
- Revertant Colony Counts (Mean ± SD) ([4]; Without Metabolic Activation, TA1537, 0.0181 μg/plate): 6 ± 4 ^N
- Revertant Colony Counts (Mean ± SD) ([4]; Without Metabolic Activation, TA1537, 0.0452 μg/plate): 6 ± 3 ^N M
- Revertant Colony Counts (Mean ± SD) ([4]; Without Metabolic Activation, TA1537, 0.145 μg/plate): 5 ± 0 ^M N
- Revertant Colony Counts (Mean ± SD) ([4]; Without Metabolic Activation, TA1537, 0.452 μg/plate): 6 ± 3 ^M N
- Revertant Colony Counts (Mean ± SD) ([4]; Without Metabolic Activation, TA1537, 1.45 μg/plate): 5 ± 2 ^N
- Revertant Colony Counts (Mean ± SD) ([4]; Without Metabolic Activation, TA1537, 4.52 μg/plate): 3 ± 4 ^N
- Revertant Colony Counts (Mean ± SD) ([4]; Without Metabolic Activation, TA1537, 14.5 μg/plate): 1 ± 1 ^R M
- Revertant Colony Counts (Mean ± SD) ([4]; Without Metabolic Activation, WP2uvrA, 1.45 μg/plate): 12 ± 5 ^N
- Revertant Colony Counts (Mean ± SD) ([4]; Without Metabolic Activation, WP2uvrA, 4.52 μg/plate): 13 ± 3 ^M N
- Revertant Colony Counts (Mean ± SD) ([4]; Without Metabolic Activation, WP2uvrA, 14.5 μg/plate): 17 ± 6 ^N
- Revertant Colony Counts (Mean ± SD) ([4]; Without Metabolic Activation, WP2uvrA, 45.2 μg/plate): 14 ± 4 ^N
- Revertant Colony Counts (Mean ± SD) ([4]; Without Metabolic Activation, WP2uvrA, 145 μg/plate): 15 ± 3 ^N
- Revertant Colony Counts (Mean ± SD) ([4]; Without Metabolic Activation, WP2uvrA, 452 μg/plate): 12 ± 2 ^N
- Revertant Colony Counts (Mean ± SD) ([4]; Without Metabolic Activation, WP2uvrA, 1450 μg/plate): 8 ± 3 ^E
- Revertant Colony Counts (Mean ± SD) ([4]; Without Metabolic Activation, WP2uvrA, 4520 μg/plate): 0 ± 0 ^E
- revertant colonies ([4]; any strain, any concentration (1.6 to 5000 μg/plate; 0.160 to 16 μg/plate), with or without metabolic activation): No increase in revertant colonies
- Hygroscopicity [5]: hygroscopic
- Residual water content after desorption [5]: < 3%
- Water adsorbed in moisture sorption analysis ([5]; at 95% RH, 25° C.): 20.6%
- Form by XRPD after moisture sorption analysis ([5]; compared with Pattern A): no change in form
